Measurements: BindingDB's records for patent US20250082630 (AstraZeneca, 2025)

Key:
[1] = molecular target: Poly [ADP-ribose] polymerase 1 (Homo sapiens, UniProt P09874); experiment: PARP Fluorescence Anisotropy Binding Assay
Protocol: (§1) Recombinant full length 6HIS tagged PARP1 protein was diluted to 6 nM with 50 mM Tris pH 8, 0.001% Triton X100, 10 mM MgCl2, 150 mM NaCl and incubated for four hours with an equivalent volume of 2 nM fluorescent probe diluted with 50 mM Tris pH 8, 0.001% Triton X100, 10 mM MgCl2, 150 mM NaCl. The final DMSO concentration of the probe was kept below 1% (v/v).Recombinant full length PARP2 protein was diluted to 6 nM with 50 mM Tris pH 8, 0.001% Triton X100, 10 mM MgCl2, 150 mM NaCl and incubated for four hours with an equivalent volume of 2 nM fluorescent probe diluted with 50 mM Tris pH 8, 0.001% Triton X100, 10 mM MgCl2, 150 mM NaCl. The final DMSO concentration of the probe was kept below 1% (v/v).Recombinant full length PARP3 protein was diluted to 100 nM with 50 mM Tris pH 8, 0.001% Triton X100, 10 mM MgCl2, 150 mM NaCl and incubated for four hours with an equivalent volume of 6 nM fluorescent probe diluted with 50 mM Tris pH 8, 0.001% Triton X100, 10 mM MgCl2, 150 mM NaCl.

[2] = molecular target: Poly [ADP-ribose] polymerase 2 (Homo sapiens, UniProt Q9UGN5); experiment: PARP Fluorescence Anisotropy Binding Assay
Sequence of Poly [ADP-ribose] polymerase 2 (Q9UGN5 whole entry): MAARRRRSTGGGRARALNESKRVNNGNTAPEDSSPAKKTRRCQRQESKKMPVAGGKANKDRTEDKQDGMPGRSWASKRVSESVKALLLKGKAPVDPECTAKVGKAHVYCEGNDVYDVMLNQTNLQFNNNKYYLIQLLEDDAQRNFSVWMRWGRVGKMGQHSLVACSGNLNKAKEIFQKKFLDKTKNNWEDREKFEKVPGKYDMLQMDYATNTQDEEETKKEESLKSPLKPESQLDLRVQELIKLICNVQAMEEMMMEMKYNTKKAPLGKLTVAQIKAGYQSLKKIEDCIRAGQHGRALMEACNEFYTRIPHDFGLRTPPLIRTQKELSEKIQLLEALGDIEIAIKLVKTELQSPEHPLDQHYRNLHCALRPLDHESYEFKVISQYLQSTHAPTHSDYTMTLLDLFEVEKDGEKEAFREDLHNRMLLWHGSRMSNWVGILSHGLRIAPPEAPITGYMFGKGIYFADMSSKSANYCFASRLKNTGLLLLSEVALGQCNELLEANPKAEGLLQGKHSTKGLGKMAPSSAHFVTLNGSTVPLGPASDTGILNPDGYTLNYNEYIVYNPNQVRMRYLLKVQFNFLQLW
Protocol: as §1

Sequence of Poly [ADP-ribose] polymerase 1 (P09874 whole entry): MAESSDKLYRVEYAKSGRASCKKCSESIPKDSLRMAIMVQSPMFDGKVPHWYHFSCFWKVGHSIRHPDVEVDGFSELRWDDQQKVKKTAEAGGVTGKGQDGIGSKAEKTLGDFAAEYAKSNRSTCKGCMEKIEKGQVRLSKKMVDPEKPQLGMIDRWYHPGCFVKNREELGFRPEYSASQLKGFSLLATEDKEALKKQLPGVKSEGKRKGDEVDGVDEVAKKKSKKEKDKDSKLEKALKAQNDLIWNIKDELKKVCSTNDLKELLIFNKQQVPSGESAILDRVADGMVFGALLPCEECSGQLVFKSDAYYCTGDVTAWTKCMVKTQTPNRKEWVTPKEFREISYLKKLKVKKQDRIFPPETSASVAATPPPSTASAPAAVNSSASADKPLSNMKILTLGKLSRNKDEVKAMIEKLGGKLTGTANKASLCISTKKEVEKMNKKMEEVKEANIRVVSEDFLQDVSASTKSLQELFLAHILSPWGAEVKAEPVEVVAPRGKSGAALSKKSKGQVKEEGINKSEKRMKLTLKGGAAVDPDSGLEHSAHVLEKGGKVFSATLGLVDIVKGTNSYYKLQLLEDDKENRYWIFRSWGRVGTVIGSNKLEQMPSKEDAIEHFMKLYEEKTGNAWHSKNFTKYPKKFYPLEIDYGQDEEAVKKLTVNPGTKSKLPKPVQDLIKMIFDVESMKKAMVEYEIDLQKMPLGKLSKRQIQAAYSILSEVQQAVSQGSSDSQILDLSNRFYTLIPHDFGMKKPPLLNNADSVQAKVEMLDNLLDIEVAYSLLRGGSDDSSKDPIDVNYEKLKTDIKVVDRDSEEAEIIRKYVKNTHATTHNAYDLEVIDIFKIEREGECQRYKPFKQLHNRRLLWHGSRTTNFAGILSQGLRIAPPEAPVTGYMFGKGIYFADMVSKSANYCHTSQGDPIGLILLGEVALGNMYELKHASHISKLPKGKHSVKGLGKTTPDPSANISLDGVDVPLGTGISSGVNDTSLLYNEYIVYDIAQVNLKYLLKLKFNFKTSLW

- IC50 [1]: 8 nM
- IC50 [2]: > 100000 nM
SMILES: CNC(=O)c1ccc(N2CCN(Cc3ccc4nc(OC)c(=O)[nH]c4c3C)CC2)c(F)n1 [US20250082630, Example 58]
